Read-outs that look alike come from different tables or passages of the source.
Columns and labels:
human CB2 receptors = target: T1, human CB2 receptors (Homo sapiens, UniProt P34972); experiment: cAMP assay, human CB2; format: cell-based
T1 construct: expressed in transfected cells; host or cells: CHO cells
Experimental: (§1) CHO cells expressing human CB1 or CB2 receptors are seeded 17-24 hours prior to the experiment 50.000 cells per well in a black 96 well plate with flat clear bottom (Corning Costar #3904) in DMEM (Invitrogen No. 31331), lx HT supplement, with 10% fetal calf serum and incubated at 5% CO2 and 37° C. in a humidified incubator. The growth medium was exchanged with Krebs Ringer Bicarbonate buffer with 1 mM IBMX and incubated at 30° C. for 30 min. Compounds were added to a final assay volume of 100 μl and incubated for 30 min at 30° C. Using the cAMP-Nano-TRF detection kit the assay (Roche Diagnostics) was stopped by the addition of 50 μl lysis reagent (Tris, NaCl, 1.5% Triton X100, 2.5% NP40, 10% NaN3) and 50 μl detection solutions (20 μM mAb Alexa700-cAMP 1:1, and 48 μM Ruthenium-2-AHA-cAMP) and shaken for 2 h at room temperature. The time-resolved energy transfer is measured by a TRF reader (Evotec Technologies GmbH), equipped with a ND:YAG laser as excitation source. The plate is measured twice with the excitation at 355 nm and at the emission with a delay of 100 ns and a gate of 100 ns, total exposure time 10 s at 730 (bandwidth 30 nm) or 645 nm (bandwidth 75 nm), respectively. The FRET signal is calculated as follows: FRET=T730-Alexa730-P(T645-B645) with P=Ru730-B730/Ru645-B645, where T730 is the test well measured at 730 nM, T645 is the test well measured at 645 nm, B730 and B645 are the buffer controls at 730 nm and 645 nm, respectively. cAMP content is determined from the function of a standard curve spanning from 10 μM to 0.13 nM cAMP.
(§2) EC50 values were determined using Activity Base analysis (ID Business Solution, Limited). The EC50 values for a wide range of cannabinoid agonists generated from this assay were in agreement with the values published in the scientific literature.

human CB1 receptors = target: T2, human CB1 receptors (Homo sapiens, UniProt P21554); experiment: cAMP assay, human CB1; format: cell-based
T2 construct: expressed in transfected cells; host or cells: CHO cells
T2 sequence (P21554 whole entry): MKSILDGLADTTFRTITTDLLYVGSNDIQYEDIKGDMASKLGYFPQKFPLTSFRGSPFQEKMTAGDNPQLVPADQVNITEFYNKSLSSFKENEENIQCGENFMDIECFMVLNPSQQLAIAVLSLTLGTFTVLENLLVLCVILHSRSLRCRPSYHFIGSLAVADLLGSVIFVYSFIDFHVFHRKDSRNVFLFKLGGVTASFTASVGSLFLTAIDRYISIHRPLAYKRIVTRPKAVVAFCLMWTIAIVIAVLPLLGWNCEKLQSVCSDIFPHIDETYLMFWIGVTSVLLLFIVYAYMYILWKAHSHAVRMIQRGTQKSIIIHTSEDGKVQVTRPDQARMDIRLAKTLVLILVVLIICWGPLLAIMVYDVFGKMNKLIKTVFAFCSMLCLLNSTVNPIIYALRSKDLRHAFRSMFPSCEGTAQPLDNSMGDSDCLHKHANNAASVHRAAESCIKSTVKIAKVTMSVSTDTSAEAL
Experimental: as §1, §2

[1] = functional cAMP assay, CHO cells expressing human CB2, read-out: Ec50: CB2 - hu cAMP
[2] = functional cAMP assay, CHO cells expressing human CB1, read-out: Ec50: CB1 - hu cAMP

T1 sequence (P34972 whole entry): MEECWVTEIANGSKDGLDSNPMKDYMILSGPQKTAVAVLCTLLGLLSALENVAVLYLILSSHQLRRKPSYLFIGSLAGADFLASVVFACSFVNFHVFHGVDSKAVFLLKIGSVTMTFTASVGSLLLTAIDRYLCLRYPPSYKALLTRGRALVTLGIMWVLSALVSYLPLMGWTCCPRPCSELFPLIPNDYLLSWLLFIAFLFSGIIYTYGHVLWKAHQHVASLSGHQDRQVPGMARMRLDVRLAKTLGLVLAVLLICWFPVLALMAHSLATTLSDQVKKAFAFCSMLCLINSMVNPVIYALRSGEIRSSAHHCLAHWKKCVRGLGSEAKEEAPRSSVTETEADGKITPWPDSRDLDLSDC

| EC50 (human CB2 receptors; [1]) [nM] | EC50 (human CB1 receptors; [2]) [nM] | SMILES | EC50 (human CB2 receptors) [nM] | EC50 (human CB1 receptors) [nM] |
| --- | --- | --- | --- | --- |
| 7.1 | > 10000 | O=C(CN1CCN(C(=O)n2nnn(-c3cccc(F)c3)c2=O)CC1)N1CCCC1 [Example 27, 1-(3-Fluoro-phenyl)-4-[4-(2-oxo-2-pyrrolidin-1-yl-ethyl)-piperazine-1-carbonyl]-1,4-dihydro-tetrazol-5-one] |  |  |
| 0.8 | > 10000 | CC1(C)CCN(C(=O)n2nnn(-c3cccc(F)c3)c2=O)CC1 [Example 28, 1-(4,4-Dimethyl-piperidine-1-carbonyl)-4-(3-fluoro-phenyl)-1,4-dihydro-tetrazol-5-one] |  |  |
| 41.6 | > 10000 | O=C(N1CCS(=O)(=O)CC1)n1nnn(-c2cccc(F)c2)c1=O [Example 29, 1-(1,1-Dioxo-1λ6-thiomorpholine-4-carbonyl)-4-(3-fluoro-phenyl)-1,4-dihydro-tetrazol-5-one] |  |  |
| 205 | > 10000 | O=C(N1CCN(c2cnccn2)CC1)n1nnn(-c2cccc(F)c2)c1=O [Example 30, 1-(3-Fluoro-phenyl)-4-(2,3,5,6-tetrahydro-[1,2′]bipyrazinyl-4-carbonyl)-1,4-dihydro-tetrazol-5-one] |  |  |
| 166 | > 10000 | N#CCCN(C(=O)n1nnn(-c2cccc(F)c2)c1=O)C1CC1 [Example 31, 4-(3-Fluoro-phenyl)-5-oxo-4,5-dihydro-tetrazole-1-carboxylic acid (2-cyano-ethyl)-cyclopropyl-amide] |  |  |
| 152 | > 10000 | CN(C(=O)n1nnn(-c2cccc(F)c2)c1=O)c1ccccn1 [Example 32, 4-(3-Fluoro-phenyl)-5-oxo-4,5-dihydro-tetrazole-1-carboxylic acid methyl-pyridin-2-yl-amide] |  |  |
| 25 | > 10000 | CN(C(=O)n1nnn(-c2cccc(F)c2)c1=O)c1cccnc1 [Example 33, 4-(3-Fluoro-phenyl)-5-oxo-4,5-dihydro-tetrazole-1-carboxylic acid methyl-pyridin-3-yl-amide] |  |  |
| 19 | > 10000 | COCC1CCCCN1C(=O)n1nnn(-c2cccc(F)c2)c1=O (centres unmarked) [Example 34, 1-(3-Fluoro-phenyl)-4-(2-methoxymethyl-piperidine-1-carbonyl)-1,4-dihydro-tetrazol-5-one] |  |  |
| 161 | > 10000 | CN(C(=O)n1nnn(C2CC2)c1=O)c1cccnc1 [Example 35, 4-Cyclopropyl-5-oxo-4,5-dihydro-tetrazole-1-carboxylic acid methyl-pyridin-3-yl-amide] |  |  |
| 874 | > 10000 | CCCn1nnn(C(=O)N(C)c2cccnc2)c1=O [Example 36, 5-Oxo-4-propyl-4,5-dihydro-tetrazole-1-carboxylic acid methyl-pyridin-3-yl-amide] |  |  |
| 407 | > 10000 | CC(C)Cn1nnn(C(=O)N(C)c2cccnc2)c1=O [Example 37, 4-Isobutyl-5-oxo-4,5-dihydro-tetrazole-1-carboxylic acid methyl-pyridin-3-yl-amide] |  |  |
| 92 | > 10000 | CC(=O)N1CCN(C(=O)n2nnn(-c3cccc(F)c3)c2=O)CC1 [Example 38, 1-(4-Acetyl-piperazine-1-carbonyl)-4-(3-fluoro-phenyl)-1,4-dihydro-tetrazol-5-one] |  |  |
| 497 | > 10000 | CCC(=O)N1CCN(C(=O)n2nnn(-c3cccc(F)c3)c2=O)CC1 [Example 39, 1-(3-Fluoro-phenyl)-4-(4-propionyl-piperazine-1-carbonyl)-1,4-dihydro-tetrazol-5-one] |  |  |
| 52.8 | > 10000 | CCN(CC)C(=O)N1CCN(C(=O)n2nnn(-c3cccc(F)c3)c2=O)CC1 [Example 40, 4-[4-(3-Fluoro-phenyl)-5-oxo-4,5-dihydro-tetrazole-1-carbonyl]-piperazine-1-carboxylic acid diethylamide] |  |  |
| 3.2 | > 10000 | O=C(N1CCC(c2ccccc2)C1)n1nnn(-c2cccc(F)c2)c1=O (centres unmarked) [Example 41, 1-(3-Fluoro-phenyl)-4-(3-phenyl-pyrrolidine-1-carbonyl)-1,4-dihydro-tetrazol-5-one] |  |  |
| 91.1 | > 10000 | CC(=O)N[C@H]1CCN(C(=O)n2nnn(-c3cccc(F)c3)c2=O)C1 [Example 42, N—{(S)-1-[4-(3-Fluoro-phenyl)-5-oxo-4,5-dihydro-tetrazole-1-carbonyl]-pyrrolidin-3-yl}-acetamide] |  |  |

| EC50 (human CB2 receptors; [1]) [nM] | EC50 (human CB1 receptors; [2]) [nM] | SMILES | EC50 (human CB2 receptors) [nM] | EC50 (human CB1 receptors) [nM] |
| --- | --- | --- | --- | --- |
| 25.8 | > 10000 | CC(=O)N[C@@H]1CCN(C(=O)n2nnn(-c3cccc(F)c3)c2=O)C1 [Example 43, N—{(R)-1-[4-(3-Fluoro-phenyl)-5-oxo-4,5-dihydro-tetrazole-1-carbonyl]-pyrrolidin-3-yl}-acetamide] |  |  |
| 13.8 | > 10000 | CCN(C(C)=O)C1CCN(C(=O)n2nnn(-c3cccc(F)c3)c2=O)C1 (centres unmarked) [Example 44, N-Ethyl-N-{1-[4-(3-fluoro-phenyl)-5-oxo-4,5-dihydro-tetrazole-1-carbonyl]-pyrrolidin-3-yl}-acetamide] |  |  |
| 797 | > 10000 | O=C(N1CCC(F)(F)C1)n1nnn(-c2cccc(F)c2)c1=O [Example 45, 1-(3,3-Difluoro-pyrrolidine-1-carbonyl)-4-(3-fluoro-phenyl)-1,4-dihydro-tetrazol-5-one] |  |  |
| 90.2 | > 10000 | CC1(C)CCCN1C(=O)n1nnn(-c2cccc(F)c2)c1=O [Example 46, 1-(2,2-Dimethyl-pyrrolidine-1-carbonyl)-4-(3-fluoro-phenyl)-1,4-dihydro-tetrazol-5-one] |  |  |
| 2.7 | > 10000 | CC1(C)CCN(C(=O)n2nnn(-c3cccc(F)c3)c2=O)C1 [Example 47, 1-(3,3-Dimethyl-pyrrolidine-1-carbonyl)-4-(3-fluoro-phenyl)-1,4-dihydro-tetrazol-5-one] |  |  |
| 6.7 | > 10000 | CC1CCCN1C(=O)n1nnn(-c2cccc(F)c2)c1=O (centres unmarked) [Example 48, 1-(3-Fluoro-phenyl)-4-(2-methyl-pyrrolidine-1-carbonyl)-1,4-dihydro-tetrazol-5-one] |  |  |
| 14.3 | > 10000 | CC(=O)N(C)C1CCN(C(=O)n2nnn(-c3cccc(F)c3)c2=O)C1 (centres unmarked) [Example 49, N-{1-[4-(3-Fluoro-phenyl)-5-oxo-4,5-dihydro-tetrazole-1-carbonyl]-pyrrolidin-3-yl}-N-methyl-acetamide] |  |  |
| 567 | > 10000 | CCOC(=O)N1CCN(C(=O)n2nnn(-c3cccc(F)c3)c2=O)CC1 [Example 50, 4-[4-(3-Fluoro-phenyl)-5-oxo-4,5-dihydro-tetrazole-1-carbonyl]-piperazine-1-carboxylic acid ethyl ester] |  |  |
| 154 | > 10000 | N#C[C@@H]1CCCN1C(=O)n1nnn(-c2cccc(F)c2)c1=O [Example 51, (S)-1-[4-(3-Fluoro-phenyl)-5-oxo-4,5-dihydro-tetrazole-1-carbonyl]-pyrrolidine-2-carbonitrile] |  |  |
| 129 | > 10000 | N#C[C@H]1CCCN1C(=O)n1nnn(-c2cccc(F)c2)c1=O [Example 52, (R)-1-[4-(3-Fluoro-phenyl)-5-oxo-4,5-dihydro-tetrazole-1-carbonyl]-pyrrolidine-2-carbonitrile] |  |  |
|  |  | CCN(Cc1ccccc1)C(=O)n1nnn(-c2ccc(Cl)nc2)c1=O [Example 53, 4-(6-Chloro-pyridin-3-yl)-5-oxo-4,5-dihydro-tetrazole-1-carboxylic acid benzyl-ethyl-amide] | 1 | > 10000 |
| 1.3 | > 10000 | COCCN(C)C(=O)n1nnn(-c2cccc(F)c2)c1=O [Example 54, 4-(3-Fluoro-phenyl)-5-oxo-4,5-dihydro-tetrazole-1-carboxylic acid (2-methoxy-ethyl)-methyl-amide] |  |  |
| 4.1 | > 10000 | COCCN(C(=O)n1nnn(-c2cccc(F)c2)c1=O)C(C)C [Example 55, 4-(3-Fluoro-phenyl)-5-oxo-4,5-dihydro-tetrazole-1-carboxylic acid isopropyl-(2-methoxy-ethyl)-amide] |  |  |
|  |  | CCCN(CCOC)C(=O)n1nnn(-c2cccc(F)c2)c1=O [Example 56, 4-(3-Fluoro-phenyl)-5-oxo-4,5-dihydro-tetrazole-1-carboxylic acid (2-methoxy-ethyl)-propyl-amide] | 17 | > 10000 |
| 8.5 | > 10000 | COCCN(CCOC)C(=O)n1nnn(-c2cccc(F)c2)c1=O [Example 57, 4-(3-Fluoro-phenyl)-5-oxo-4,5-dihydro-tetrazole-1-carboxylic acid bis-(2-methoxy-ethyl)-amide] |  |  |

From US20160083357A1, “NOVEL TETRAZOLONE DERIVATIVES” (Hoffmann-La Roche Inc., priority 2013, published 2016)
